Structures are written as SMILES.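 Values below derive from 48-hour exposures of cells grown in 96-well plates, with endpoints linearly interpolated between the two concentrations bracketing the appropriate inhibition level. GI50 is the concentration that inhibits growth by half.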 The source made the active and inactive calls. Rule as the data show it: active = GI50 up to about 1.1 µM and inactive = higher.

Test systems include IGROV-1; Hs-578T; TK-10; RXF 393; COLO 205; OVCAR-4; 786-0; SK-MEL-2; PC-3; KM12; HCT-116; SF-268; HL-60; A549; OVCAR-8; MOLT-4; SR; UO-31; MDA-N; SK-OV-3.
Test in all cases: inhibition of tumour cell growth, NCI panel, 48 h

As for `O=[N+]([O-])c1cccc(CSc2nc(O)c3nc[nH]c3n2)c1`, the GI50 in the assay with IGROV-1 is > 100 µM (inactive); with Hs-578T, 87.1 µM (inactive); in the assay with TK-10, > 100 µM (inactive); in the assay on RXF 393, > 100 µM (inactive); in the assay with COLO 205 it was > 100 µM (inactive); with OVCAR-4, > 100 µM (inactive). In addition, the GI50 in the assay with 786-0, in the assay on SK-MEL-2, in the assay on PC-3, with KM12, in the assay with HCT-116 and in the assay on SF-268 was > 100 µM (inactive) throughout. The GI50 in the assay on HL-60, with A549, in the assay on OVCAR-8, in the assay on MOLT-4, in the assay with SR and in the assay on UO-31 was > 100 µM (inactive) in each case. For the same molecule, the GI50 in the assay with MDA-N and with SK-OV-3 was > 100 µM (inactive) in each case.

Turning to `CC(=O)Nc1n[n+]([O-])c2cc(C)ccc2[n+]1[O-]`, the GI50 in the assay on IGROV-1 is 1.48 µM (inactive); in the assay on Hs-578T, 6.61 µM (inactive); in the assay with TK-10 it was 22.8 µM (inactive); with RXF 393 it was 5.75 µM (inactive); in the assay on COLO 205, 2.37 µM (inactive); with OVCAR-4 it was 4.38 µM (inactive). For the same molecule, the GI50 with 786-0 is 3.26 µM (inactive); in the assay with SK-MEL-2, 3.81 µM (inactive); in the assay with PC-3 it was 1.81 µM (inactive); in the assay on KM12 it was 3.68 µM (inactive); with HCT-116, 2.08 µM (inactive); with SF-268, 3.57 µM (inactive). In addition, the GI50 with HL-60 is 1.92 µM (inactive); in the assay with A549, 2.44 µM (inactive); in the assay with OVCAR-8, 2.96 µM (inactive); in the assay with MOLT-4, 1.49 µM (inactive); in the assay on SR it was 2.56 µM (inactive); in the assay on UO-31, 3.38 µM (inactive). Further, the GI50 with MDA-N was 3.56 µM (inactive); in the assay on SK-OV-3, 5.86 µM (inactive).

For the molecule `Clc1nc2c(-c3cccs3)ncnc2n1Cc1ccccc1`, the GI50 in the assay with IGROV-1 was 29.6 µM (inactive); with Hs-578T, 22.8 µM (inactive); in the assay with TK-10 it was 23 µM (inactive); in the assay on RXF 393 it was 17 µM (inactive); with COLO 205, 34.7 µM (inactive); in the assay with OVCAR-4 it was 44.9 µM (inactive). In addition, the GI50 with 786-0 is 19.5 µM (inactive); in the assay on SK-MEL-2 it was 63.2 µM (inactive); with PC-3, 26.2 µM (inactive); with KM12, 15.9 µM (inactive); with HCT-116 it was 45.2 µM (inactive); in the assay on SF-268, 29.6 µM (inactive). In addition, the GI50 in the assay with HL-60 was 24.5 µM (inactive); in the assay on A549 it was 32.4 µM (inactive); in the assay on OVCAR-8 it was 49.9 µM (inactive); in the assay with MOLT-4, 37.5 µM (inactive); in the assay with SR it was 6.97 µM (inactive); in the assay on UO-31 it was 0.435 µM (active). The GI50 in the assay with MDA-N is 42.6 µM (inactive); with SK-OV-3, 38.9 µM (inactive).

For the molecule `Cc1cn2cc(-c3cccs3)nc2s1`, the GI50 in the assay with IGROV-1 is > 86.3 µM (inactive); in the assay on Hs-578T, > 100 µM (inactive); in the assay on TK-10, > 73.3 µM (inactive); in the assay on RXF 393, > 100 µM (inactive); with COLO 205, > 95.5 µM (inactive); with OVCAR-4 it was > 100 µM (inactive). Also, the GI50 with 786-0 is > 100 µM (inactive); in the assay on SK-MEL-2 it was > 100 µM (inactive); with PC-3 it was > 74.3 µM (inactive); with KM12 it was 43.9 µM (inactive); in the assay with HCT-116, > 100 µM (inactive); with SF-268 it was > 91.8 µM (inactive). Also, the GI50 with HL-60 is 55.8 µM (inactive); in the assay with A549, > 72.1 µM (inactive); with OVCAR-8 it was > 100 µM (inactive); in the assay with MOLT-4, 58.7 µM (inactive); in the assay on SR it was > 67.6 µM (inactive); in the assay with UO-31, 48.8 µM (inactive). Besides, the GI50 is > 72.6 µM (inactive) in the assay on MDA-N and > 100 µM (inactive) with SK-OV-3.

`Cc1ccc(NC(Nc2ccc(C)cc2C)=C(/C=C(\Cl)[N+](=O)[O-])[N+](=O)[O-])c(C)c1`: the GI50 in the assay with IGROV-1 was 6.04 µM (inactive); in the assay with Hs-578T, 6.71 µM (inactive); in the assay on TK-10 it was 4.37 µM (inactive); in the assay on RXF 393 it was 1.72 µM (inactive); in the assay on COLO 205, 2.18 µM (inactive); in the assay on OVCAR-4, 3.69 µM (inactive). Also, the GI50 with 786-0 was 2.81 µM (inactive); in the assay with SK-MEL-2 it was 4.23 µM (inactive); in the assay with PC-3 it was 7.03 µM (inactive); in the assay with KM12, 10.4 µM (inactive); in the assay with HCT-116, 1.7 µM (inactive); in the assay with SF-268, 4.82 µM (inactive). The GI50 is 0.592 µM (active) in the assay on HL-60; 17.3 µM (inactive) with A549; 2.81 µM (inactive) with OVCAR-8; 1.53 µM (inactive) in the assay with MOLT-4; 1.28 µM (inactive) in the assay on SR; 5.9 µM (inactive) in the assay with UO-31. Further, the GI50 was 3.37 µM (inactive) in the assay on MDA-N and 5.18 µM (inactive) in the assay with SK-OV-3.

In the case of `OCC(O)C(O)C(O)C1SC(c2ccccc2)=NN1c1ccccc1` (stereo not given), the GI50 with IGROV-1 is > 96.2 µM (inactive); in the assay with Hs-578T, 35.1 µM (inactive); in the assay with TK-10 it was 61.9 µM (inactive); with RXF 393, 20.4 µM (inactive); in the assay with COLO 205 it was > 100 µM (inactive); in the assay with OVCAR-4, > 88.3 µM (inactive). The GI50 is 37 µM (inactive) in the assay on 786-0; 41.7 µM (inactive) with SK-MEL-2; > 57.5 µM (inactive) in the assay on PC-3; > 100 µM (inactive) in the assay with KM12; 69.5 µM (inactive) in the assay with HCT-116; 24.6 µM (inactive) with SF-268. In addition, the GI50 in the assay with HL-60 is > 88.7 µM (inactive); in the assay with A549 it was 78.3 µM (inactive); in the assay with OVCAR-8 it was 54 µM (inactive); with MOLT-4, > 81.3 µM (inactive); in the assay on SR it was > 81.3 µM (inactive); in the assay on UO-31 it was 66.2 µM (inactive). In addition, the GI50 with MDA-N was > 82.4 µM (inactive); in the assay on SK-OV-3, 36.9 µM (inactive).

In the case of `CO/N=C(\C(=O)Nc1cncs1)c1csc(NC(c2ccccc2)(c2ccccc2)c2ccccc2)n1`, the GI50 is > 10 µM (inactive) with IGROV-1; > 10 µM (inactive) in the assay with Hs-578T; > 10 µM (inactive) with TK-10; 9.55 µM (inactive) in the assay on RXF 393; > 10 µM (inactive) in the assay with COLO 205; > 10 µM (inactive) with OVCAR-4. Further, the GI50 with 786-0 was > 10 µM (inactive); in the assay with SK-MEL-2, > 10 µM (inactive); in the assay on PC-3, 4.38 µM (inactive); in the assay on KM12, 9.4 µM (inactive); in the assay on HCT-116 it was 5 µM (inactive); in the assay with SF-268 it was 9.79 µM (inactive). The GI50 with HL-60 was 6.85 µM (inactive); in the assay with A549, 3.84 µM (inactive); with OVCAR-8, > 10 µM (inactive); in the assay with MOLT-4, 3.31 µM (inactive); with SR, 4.12 µM (inactive); in the assay with UO-31, 4.37 µM (inactive). The GI50 in the assay on MDA-N and in the assay with SK-OV-3 was > 10 µM (inactive) throughout.

Regarding `O=C1NC(O)c2ccccc2O1` (stereo not given), the GI50 in the assay on IGROV-1, in the assay on Hs-578T, in the assay with TK-10, in the assay on RXF 393, with COLO 205 and in the assay with OVCAR-4 was > 100 µM (inactive) throughout. Also, the GI50 in the assay with 786-0, with SK-MEL-2, in the assay with PC-3, in the assay with KM12, in the assay with HCT-116 and in the assay on SF-268 was > 100 µM (inactive) throughout. Moreover, the GI50 in the assay on HL-60, with A549, in the assay on OVCAR-8, with MOLT-4, in the assay on SR and in the assay with UO-31 was > 100 µM (inactive) throughout. Moreover, the GI50 with MDA-N and in the assay with SK-OV-3 was > 100 µM (inactive) in each case.

On to `Nc1cc([N+](=O)[O-])ccc1C(=O)N1CCC[C@H]1CO`, for which the GI50 is > 100 µM (inactive) in the assay with IGROV-1; 64.1 µM (inactive) in the assay with Hs-578T; > 100 µM (inactive) in the assay on TK-10; > 100 µM (inactive) in the assay with RXF 393; > 100 µM (inactive) in the assay on COLO 205; > 100 µM (inactive) with OVCAR-4. For the same molecule, the GI50 with 786-0, with SK-MEL-2, in the assay with PC-3, with KM12, with HCT-116 and in the assay with SF-268 was > 100 µM (inactive) each time. Moreover, the GI50 with HL-60, in the assay with A549, with OVCAR-8, in the assay on MOLT-4, with SR and with UO-31 was > 100 µM (inactive) in each case. Besides, the GI50 in the assay with MDA-N and with SK-OV-3 was > 100 µM (inactive) throughout.

Consider `COc1ccc2c(c1)/c(=C/C#N)c1c3ccccc3[n+](C)n21`, for which the GI50 in the assay on IGROV-1 was 7.62 µM (inactive); in the assay with Hs-578T, 8.55 µM (inactive); in the assay on TK-10 it was 6.9 µM (inactive); in the assay with RXF 393 it was 10.9 µM (inactive); with COLO 205, 2.34 µM (inactive); with OVCAR-4, 4.37 µM (inactive). The GI50 in the assay on 786-0 was 3.95 µM (inactive); in the assay with SK-MEL-2, 14.5 µM (inactive); in the assay with PC-3, 2.8 µM (inactive); with KM12, 6.04 µM (inactive); with HCT-116 it was 3.13 µM (inactive); in the assay with SF-268 it was 8.71 µM (inactive). In addition, the GI50 in the assay on HL-60 is 3.05 µM (inactive); with A549 it was 3.39 µM (inactive); in the assay on OVCAR-8, 11.4 µM (inactive); with MOLT-4, 3.3 µM (inactive); in the assay on SR it was 6.34 µM (inactive); in the assay on UO-31, 16.7 µM (inactive). In addition, the GI50 with MDA-N was 5.43 µM (inactive); in the assay on SK-OV-3 it was 15.5 µM (inactive).

(Values after ChEMBL document CHEMBL1201862, “PubChem BioAssay data set” (2004).)
